# *1 amine or outer side, *2 acyl side, *3 side chain or, on linkers, in order; H or OH if unused. Where a SMILES comes first, the peptide text is derived from it. Bridges are numbered along the chain shown (N, C = ends). [ ]: non-standard residue; d: D form. The star is where a group is joined. ξ: configuration not given here. NMeAbu(3,3-F2-piperidino) = CN[C@@H](CCN1CCCC(F)(F)C1)C(=O)O; Ala(4-thiazolyl) = N[C@@H](Cc1cscn1)C(=O)O; NMeF = CN[C@@H](Cc1ccccc1)C(=O)O; NMeGABA = CN(CCCC(=O)[*:2])[*:1]; NMeβAla = CN(CCC(=O)[*:2])[*:1]; ξThr(3R) = C[C@@H](O)C(N)C(=O)O; NMeL = CN[C@@H](CC(C)C)C(=O)O; NMeV = CN[C@H](C(=O)O)C(C)C; NMeA = CN[C@@H](C)C(=O)O; Piperidide = C1CCN(*)CC1; NBuGly = CCCCNCC(=O)O; Sar = CNCC(=O)O; tBu = CC(C)(C)*
# Experiment: in vitro
# Conditions: human, Caco-2, Caco-2
row,Structure (SMILES),Papp [×10⁻⁶ cm/s]
1,"CCCCN1CC(=O)N(C)[C@@H](CC(C)C)C(=O)N[C@@H](COC(C)(C)C)C(=O)N(C)[C@@H](Cc2ccccc2)C(=O)N(C)[C@@H](C(C)C)C(=O)N[C@H](C(=O)N2CCCCC2)CC(=O)N[C@H](C)C(=O)N(C)[C@@H](Cc2ccccc2)C(=O)N[C@@H](CC(C)C)C(=O)N(C)[C@@H](CCN2CCCC(F)(F)C2)C(=O)N[C@@H]([C@@H](C)O)C1=O [pd386] ([dA][NMeF]L[NMeAbu(3,3-F2-piperidino)]T[NBuGly][NMeL]S(tBu)[NMeF][NMeV]D-Piperidide; lactam N-11)",2.3
2,"CCCCN1CC(=O)N(C)[C@@H](C(C)C)C(=O)N[C@@H](CC(C)C)C(=O)N(C)[C@@H](Cc2ccccc2)C(=O)N(C)[C@@H](CCN2CCCC(F)(F)C2)C(=O)N[C@H](C(=O)N2CCCCC2)CC(=O)N[C@H](C)C(=O)N(C)[C@@H](Cc2ccccc2)C(=O)N[C@@H](CC(C)C)C(=O)N(C)[C@@H](CC(C)C)C(=O)N[C@@H]([C@@H](C)O)C1=O [pd388] ([dA][NMeF]L[NMeL]T[NBuGly][NMeV]L[NMeF][NMeAbu(3,3-F2-piperidino)]D-Piperidide; lactam N-11)",1.9
3,"CC(C)C[C@@H]1NC(=O)[C@H](Cc2ccccc2)N(C)C(=O)[C@H](Cc2ccccc2)N(C)C(=O)[C@H](CC(C)C)NC(=O)[C@H](CC(C)C)N(C)C(=O)CCCN(C)C(=O)C[C@@H](C(=O)N2CCCCC2)NC(=O)[C@H](C)N(C)C(=O)[C@H](CCN2CCCC(F)(F)C2)N(C)C(=O)[C@H]([C@@H](C)O)NC(=O)[C@H](CC(C)C)N(C)C1=O [pd390] ([NMeGABA][NMeL]L[NMeF][NMeF]L[NMeL]T[NMeAbu(3,3-F2-piperidino)][NMeA]D-Piperidide; lactam N-11)",2
4,"CC(C)C[C@@H]1NC(=O)[C@H](C)N(C)C(=O)C[C@@H](C(=O)N2CCCCC2)NC(=O)[C@H](C(C)C)N(C)C(=O)CN(C)C(=O)[C@H]([C@@H](C)O)NC(=O)[C@H](CCN2CCCC(F)(F)C2)N(C)C(=O)[C@H](Cc2ccccc2)N(C)C(=O)[C@H](CC(C)C)NC(=O)[C@H](Cc2ccccc2)N(C)C(=O)[C@H](CC(C)C)N(C)C1=O [pd391] ([NMeA]L[NMeL][NMeF]L[NMeF][NMeAbu(3,3-F2-piperidino)]T[Sar][NMeV]D-Piperidide; lactam N-11)",2.4
5,"CCCCN1CC(=O)N(C)[C@@H](CCN2CCCC(F)(F)C2)C(=O)N[C@H](C(=O)N2CCCCC2)CC(=O)N(C)[C@@H](C)C(=O)N[C@@H](CC(C)C)C(=O)N(C)[C@@H](CC(C)C)C(=O)N(C)[C@@H](Cc2ccccc2)C(=O)N[C@@H](CC(C)C)C(=O)N(C)[C@@H](Cc2ccccc2)C(=O)N(C)[C@@H](C)C(=O)N[C@@H]([C@@H](C)O)C1=O [pd392] ([NMeA]L[NMeL][NMeF]L[NMeF][NMeA]T[NBuGly][NMeAbu(3,3-F2-piperidino)]D-Piperidide; lactam N-11)",3.5

# Same assay, conditions: human, Caco-2, Caco-2 (cm/sec) Papp
row,Structure (SMILES),Papp [×10⁻⁶ cm/s]
1,CC(C)C[C@@H]1NC(=O)[C@H](Cc2ccccc2)N(C)C(=O)C([C@@H](C)O)NC(=O)[C@H](Cc2ccccc2)N(C)C(=O)CN(C)C(=O)[C@H](Cc2ccccc2)NC(=O)[C@H](CC(C)C)N(C)C(=O)[C@H](CC(C)C)NC(=O)[C@H](Cc2ccccc2)N(C)C(=O)[C@H](C)N(C)C(=O)C[C@@H](C(=O)N2CCCCC2)NC1=O (stereo partly drawn) [pd231] ([NMeA][NMeF]L[NMeL]F[Sar][NMeF][ξThr(3R)][NMeF]LD-Piperidide; lactam N-11),0.21
2,CC(C)C[C@H]1C(=O)N(C)[C@@H](Cc2ccccc2)C(=O)N(C)[C@@H](Cc2ccccc2)C(=O)N[C@@H]([C@@H](C)O)C(=O)N(C)[C@@H](C)C(=O)N(C)[C@@H](Cc2ccccc2)C(=O)N[C@H](C(=O)N2CCCCC2)CC(=O)N(C)[C@@H](C)C(=O)N(C)[C@@H](CC(C)C)C(=O)N(C)[C@@H](Cc2ccccc2)C(=O)N[C@@H](C)C(=O)N1C [pd232] ([NMeA][NMeL][NMeF]A[NMeL][NMeF][NMeF]T[NMeA][NMeF]D-Piperidide; lactam N-11),0.19
3,CC(C)C[C@H]1C(=O)N(C)[C@@H](Cc2ccccc2)C(=O)N(C)[C@@H](Cc2ccccc2)C(=O)N[C@@H]([C@@H](C)O)C(=O)N(C)[C@@H](C)C(=O)N(C)[C@@H](Cc2ccccc2)C(=O)N[C@H](C(=O)N2CCCCC2)CC(=O)N(C)[C@@H](C)C(=O)N(C)[C@@H](Cc2ccccc2)C(=O)N(C)[C@@H](CC(C)C)C(=O)N[C@@H](C(C)C)C(=O)N1C [pd233] ([NMeA][NMeF][NMeL]V[NMeL][NMeF][NMeF]T[NMeA][NMeF]D-Piperidide; lactam N-11),0.17
4,CC(C)C[C@@H]1NC(=O)[C@H](CC(C)C)N(C)C(=O)[C@@H](C)NC(=O)C[C@@H](C(=O)N2CCCCC2)NC(=O)[C@H](Cc2ccccc2)N(C)C(=O)[C@H](Cc2ccccc2)N(C)C(=O)[C@H](C)N(C)C(=O)[C@H]([C@@H](C)O)NC(=O)[C@H](Cc2ccccc2)N(C)C(=O)[C@H](COC(C)(C)C)NC(=O)[C@H](Cc2ccccc2)N(C)C1=O [pd234] ([dA][NMeL]L[NMeF]S(tBu)[NMeF]T[NMeA][NMeF][NMeF]D-Piperidide; lactam N-11),0.15
5,CC(C)C[C@@H]1NC(=O)[C@H](CC(C)C)N(C)C(=O)[C@H](CC(C)C)N(C)C(=O)CNC(=O)[C@H](Cc2ccccc2)N(C)C(=O)[C@H](Cc2cscn2)NC(=O)[C@H](CC(C)C)N(C)C(=O)[C@H](Cc2ccccc2)NC(=O)[C@H](C)NC(=O)C[C@@H](C(=O)N(C)[C@@H](Cc2ccccc2)C(=O)N[C@@H](C)C(=O)N2CCCCC2)NC1=O [pd235] (AF[NMeL][Ala(4-thiazolyl)][NMeF]G[NMeL][NMeL]LD[NMeF]A-Piperidide; lactam N-10),0.1
6,CC(C)C[C@H]1C(=O)N[C@@H](COC(C)(C)C)C(=O)N[C@@H]([C@@H](C)O)C(=O)N(C)[C@@H](Cc2ccccc2)C(=O)N[C@H](C(=O)N2CCCCC2)CC(=O)N[C@@H](C)C(=O)N(C)[C@@H](Cc2ccccc2)C(=O)N(C)[C@@H](C)C(=O)N(C)[C@@H](Cc2ccccc2)C(=O)N(C)[C@@H](CC(C)C)C(=O)N[C@@H](Cc2ccccc2)C(=O)N1C [pd237] (A[NMeF][NMeA][NMeF][NMeL]F[NMeL]S(tBu)T[NMeF]D-Piperidide; lactam N-11),0.089
7,CC[C@H](C)[C@@H]1NC(=O)[C@H](Cc2ccccc2)N(C)C(=O)[C@H](C)N(C)C(=O)[C@H](CC(C)C)N(C)C(=O)[C@H](Cc2ccccc2)N(C)C(=O)CCN(C)C(=O)C[C@@H](C(=O)N(C)[C@@H](Cc2ccccc2)C(=O)N(C)[C@@H](Cc2ccccc2)C(=O)N[C@@H](C)C(=O)N2CCCCC2)NC(=O)[C@H]([C@@H](C)O)NC(=O)[C@H](CC(C)C)N(C)C(=O)[C@H](CC(C)C)N(C)C1=O [pd239] ([NMeβAla][NMeF][NMeL][NMeA][NMeF]I[NMeL][NMeL]TD[NMeF][NMeF]A-Piperidide; lactam N-10),0.065
8,CC[C@H](C)[C@@H]1NC(=O)[C@H](Cc2ccccc2)N(C)C(=O)[C@H](C)N(C)C(=O)C[C@@H](C(=O)N(C)[C@@H](Cc2ccccc2)C(=O)N(C)[C@@H](Cc2ccccc2)C(=O)N[C@@H](C)C(=O)N2CCCCC2)NC(=O)[C@H](CC(C)C)N(C)C(=O)[C@H](Cc2ccccc2)N(C)C(=O)[C@H]([C@@H](C)O)NC(=O)[C@H](CC(C)C)N(C)C(=O)[C@H](CC(C)C)N(C)C(=O)[C@H](C)N(C)C1=O [pd240] ([NMeA][NMeF]I[NMeA][NMeL][NMeL]T[NMeF][NMeL]D[NMeF][NMeF]A-Piperidide; lactam N-10),0.06
9,CC(C)C[C@H]1C(=O)N(C)[C@@H](Cc2ccccc2)C(=O)N(C)[C@@H](CC(C)C)C(=O)N[C@H](C(=O)N(C)[C@@H](Cc2ccccc2)C(=O)N[C@@H](Cc2ccccc2)C(=O)N2CCCCC2)CC(=O)N[C@H](C(C)C)C(=O)N[C@@H](C)C(=O)N[C@@H]([C@@H](C)O)C(=O)N(C)[C@@H](C)C(=O)N[C@@H](Cc2ccccc2)C(=O)N1C [pd241] ([dV]AT[NMeA]F[NMeL][NMeF][NMeL]D[NMeF]F-Piperidide; lactam N-9),0.058
10,CC[C@H](C)[C@@H]1NC(=O)[C@H](Cc2ccccc2)N(C)C(=O)[C@H]([C@@H](C)O)NC(=O)[C@@H](C)NC(=O)C[C@@H](C(=O)N(C)[C@@H](Cc2ccccc2)C(=O)N(C)[C@@H](Cc2ccccc2)C(=O)N[C@@H](C)C(=O)N2CCCCC2)NC(=O)[C@H](CC(C)C)N(C)C(=O)[C@H](CC(C)C)N(C)C(=O)[C@H](Cc2ccccc2)N(C)C(=O)[C@H](CC(C)C)N(C)C(=O)[C@H](C)N(C)C1=O [pd242] ([dA]T[NMeF]I[NMeA][NMeL][NMeF][NMeL][NMeL]D[NMeF][NMeF]A-Piperidide; lactam N-10),0.058
11,CC(C)C[C@@H]1NC(=O)[C@H](Cc2ccccc2)N(C)C(=O)[C@H](COC(C)(C)C)NC(=O)[C@H](Cc2ccccc2)N(C)C(=O)[C@H](Cc2ccccc2)N(C)C(=O)[C@H](CC(C)C)N(C)C(=O)[C@@H](CC(C)C)NC(=O)C[C@@H](C(=O)N2CCCCC2)NC(=O)[C@H](Cc2ccccc2)N(C)C(=O)[C@H]([C@@H](C)O)NC(=O)[C@H](CC(C)C)N(C)C1=O [pd243] ([dL][NMeL][NMeF][NMeF]S(tBu)[NMeF]L[NMeL]T[NMeF]D-Piperidide; lactam N-11),0.057
12,CC(C)C[C@@H]1NC(=O)[C@H](Cc2ccccc2)N(C)C(=O)[C@H](CC(C)C)N(C)C(=O)[C@H](Cc2ccccc2)NC(=O)[C@H](C)NC(=O)C[C@@H](C(=O)N2CCCCC2)NC(=O)[C@H](Cc2ccccc2)N(C)C(=O)CN(C)C(=O)[C@H](Cc2ccccc2)NC(=O)[C@H](CC(C)C)N(C)C(=O)[C@H]([C@@H](C)O)NC1=O [pd244] (AF[NMeL][NMeF]LT[NMeL]F[Sar][NMeF]D-Piperidide; lactam N-11),0.045
13,CC(C)C[C@@H]1NC(=O)[C@H]([C@@H](C)O)NC(=O)[C@H](CC(C)C)N(C)C(=O)C[C@@H](C(=O)N2CCCCC2)NC(=O)[C@H](COC(C)(C)C)NC(=O)[C@H](Cc2ccccc2)NC(=O)[C@H](C)N(C)C(=O)[C@H](Cc2ccccc2)NC(=O)CN(C)C(=O)[C@H](Cc2ccccc2)N(C)C(=O)[C@H](Cc2ccccc2)N(C)C1=O [pd245] ([NMeL]TL[NMeF][NMeF][Sar]F[NMeA]FS(tBu)D-Piperidide; lactam N-11),0.019
14,CC(C)C[C@H]1C(=O)NCC(=O)N[C@H](C(=O)N(C)[C@@H](Cc2ccccc2)C(=O)N(C)[C@@H](Cc2ccccc2)C(=O)N[C@@H](C)C(=O)N2CCCCC2)CC(=O)N[C@@H](C)C(=O)N[C@@H]([C@@H](C)O)C(=O)N(C)[C@@H](C)C(=O)N(C)[C@@H](Cc2ccccc2)C(=O)N[C@@H](C(C)C)C(=O)N(C)[C@@H](Cc2ccccc2)C(=O)N1C [pd247] (AT[NMeA][NMeF]V[NMeF][NMeL]GD[NMeF][NMeF]A-Piperidide; lactam N-9),0.087
